Among the data in US9815839B2, “N-(1-(substituted-phenyl)ethyl)-9H-purin-6-amines as PI3K inhibitors” (Incyte Corporation, priority 2010, dated 2017) are IC50 values, retold here.

Structures can show the parent of a compound that is named as a salt.

One experiment addresses T1, PI3Kδ (p110δ/p85α) (Homo sapiens, UniProt O00329).
T1 construct: purchased Millipore (Bedford, Mass.)
The experiment can be described thus: PI3Kδ scintillation proximity assay. Type of experiment: biochemical. Conditions: 20 μM ATP, 4 nM PI3Kδ. An outline of the steps:
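p110δ/p85α (4 nM) phosphorylated 20 μM PIP2 with 20 μM ATP plus [γ-33P]ATP in 20 mM MOPS pH 6.7, 10 mM MgCl2, 5 mM DTT, 0.03% CHAPS, 0.5% DMSO, 210 min at room temperature. EDTA quench, WGA SPA bead capture, scintillation counting; IC50 from log-concentration fit.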

Experiment [1] has as its system Pfeiffer cell line (diffuse large B cell lymphoma). The experiment can be described thus: Pfeiffer cell proliferation assay. Type of experiment: cell-based. The settings on record: Homo sapiens, Pfeiffer, Pfeiffer cells, 3-4 days plus 12 hours [3H]-thymidine incorporation. An outline of the steps: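 Pfeiffer DLBCL cells grown in RPMI/10% FBS at 2×10^3 cells/well in ultra-low-binding plates with a range of compound concentrations for 3-4 days. [3H]-thymidine (1 μCi/well) was then added for 12 h more. Incorporation was read by filtration and scintillation counting.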
On the technique in general: Uptake of a labelled nucleoside into DNA is a usual measure of proliferation.

T1 sequence (O00329 whole entry, species assumed): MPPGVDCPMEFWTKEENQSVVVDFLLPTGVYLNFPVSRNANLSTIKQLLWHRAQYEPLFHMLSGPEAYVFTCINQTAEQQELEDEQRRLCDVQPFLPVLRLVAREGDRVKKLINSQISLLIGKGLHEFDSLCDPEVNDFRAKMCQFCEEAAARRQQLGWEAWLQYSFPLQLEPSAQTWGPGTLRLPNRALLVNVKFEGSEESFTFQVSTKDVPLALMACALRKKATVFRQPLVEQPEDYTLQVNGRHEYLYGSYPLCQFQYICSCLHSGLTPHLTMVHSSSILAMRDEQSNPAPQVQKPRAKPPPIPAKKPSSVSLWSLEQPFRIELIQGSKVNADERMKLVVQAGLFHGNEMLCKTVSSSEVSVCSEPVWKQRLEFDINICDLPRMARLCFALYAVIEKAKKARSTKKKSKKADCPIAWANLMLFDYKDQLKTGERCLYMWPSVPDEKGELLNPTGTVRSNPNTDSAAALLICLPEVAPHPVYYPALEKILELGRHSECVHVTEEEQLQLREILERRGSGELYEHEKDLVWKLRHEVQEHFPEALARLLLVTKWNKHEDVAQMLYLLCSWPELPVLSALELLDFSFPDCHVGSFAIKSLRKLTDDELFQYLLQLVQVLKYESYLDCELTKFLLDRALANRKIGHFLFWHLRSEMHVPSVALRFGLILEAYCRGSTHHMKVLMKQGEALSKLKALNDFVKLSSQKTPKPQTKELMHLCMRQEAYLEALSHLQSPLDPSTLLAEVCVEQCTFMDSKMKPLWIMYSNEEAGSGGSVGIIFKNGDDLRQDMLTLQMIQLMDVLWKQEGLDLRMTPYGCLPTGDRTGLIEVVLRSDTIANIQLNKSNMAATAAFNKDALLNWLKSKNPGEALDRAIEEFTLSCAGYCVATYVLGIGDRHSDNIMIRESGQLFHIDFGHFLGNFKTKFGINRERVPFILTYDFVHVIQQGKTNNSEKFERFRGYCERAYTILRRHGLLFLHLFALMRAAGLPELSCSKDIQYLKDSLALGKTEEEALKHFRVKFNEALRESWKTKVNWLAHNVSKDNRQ
T1 sequence (P27986 whole entry partner, species assumed): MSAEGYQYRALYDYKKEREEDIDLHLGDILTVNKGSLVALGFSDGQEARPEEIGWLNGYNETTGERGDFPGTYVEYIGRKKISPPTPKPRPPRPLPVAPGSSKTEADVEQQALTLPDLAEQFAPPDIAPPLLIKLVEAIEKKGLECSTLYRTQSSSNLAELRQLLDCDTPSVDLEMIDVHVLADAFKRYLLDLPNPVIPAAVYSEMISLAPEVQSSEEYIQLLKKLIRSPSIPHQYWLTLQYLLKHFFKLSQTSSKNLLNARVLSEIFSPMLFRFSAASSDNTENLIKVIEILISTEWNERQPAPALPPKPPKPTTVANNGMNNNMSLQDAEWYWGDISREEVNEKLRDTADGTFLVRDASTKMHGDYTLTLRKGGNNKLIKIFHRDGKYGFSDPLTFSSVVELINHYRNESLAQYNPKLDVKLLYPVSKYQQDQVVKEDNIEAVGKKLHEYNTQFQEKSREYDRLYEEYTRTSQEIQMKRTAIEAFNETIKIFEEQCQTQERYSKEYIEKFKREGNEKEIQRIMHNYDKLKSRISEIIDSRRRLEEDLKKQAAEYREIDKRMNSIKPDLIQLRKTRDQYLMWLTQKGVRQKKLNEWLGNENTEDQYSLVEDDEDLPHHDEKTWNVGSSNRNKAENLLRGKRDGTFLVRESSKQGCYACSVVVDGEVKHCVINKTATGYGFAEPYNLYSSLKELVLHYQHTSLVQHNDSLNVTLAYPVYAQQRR

A word on the IC50: it is the midpoint of a concentration-inhibition curve. As for `COc1c(C(C)Nc2ncnc3[nH]cnc23)cc(Cl)c(C)c1-c1ccc(Cl)c(F)c1` (centres unmarked) [Example 92, N-{1-(4′,5-dichloro-3'-fluoro-2-methoxy-6-methylbiphenyl-3-yl)ethyl]-9H-purin-6-amine], the IC50 lay within 100 to 250 nM at PI3Kδ (p110δ/p85α) and 100 to 500 nM in experiment [1].

Regarding `COc1c(C(C)Nc2ncnc3[nH]cnc23)cc(Cl)c(C)c1-c1ccc(F)c(C(F)(F)F)c1` (centres unmarked) [Example 93, N-{1-[5-chloro-4′-fluoro-2-methoxy-6-methyl-3′-(trifluoromethyl)biphenyl-3-yl]ethyl}-9H-purin-6-amine], the IC50 is 50 to 100 nM on PI3Kδ (p110δ/p85α) and more than 1000 nM in experiment [1].

In the case of `COc1c(C(C)Nc2ncnc3[nH]cnc23)cc(Cl)c(C)c1-c1ccc(F)c(C(=O)N(C)C)c1` (centres unmarked) [Example 94, 3′-chloro-4-fluoro-6′-methoxy-N,N,2′-trimethyl-5′-[1-(9H-purin-6-ylamino)ethyl]biphenyl-3-carboxamide], the half-inhibitory concentration (IC50) at PI3Kδ (p110δ/p85α) was less than 50 nM; in experiment [1], less than 100 nM.

Consider `COc1cc(-c2c(C)c(Cl)cc(C(C)Nc3ncnc4[nH]cnc34)c2OC)ccc1F` (centres unmarked) [Example 95, N-[1-(5-chloro-4′-fluoro-2,3′-dimethoxy-6-methylbiphenyl-3-yl)ethyl]-9H-purin-6-amine], for which the 50% inhibitory concentration (IC50) was less than 50 nM at PI3Kδ (p110δ/p85α) and 500 to 1000 nM in experiment [1].

Regarding `COc1ccc(-c2c(C)c(Cl)cc(C(C)Nc3ncnc4[nH]cnc34)c2OC)cc1OC` (centres unmarked) [Example 96, N-[1-(5-chloro-2,3′,4′-trimethoxy-6-methylbiphenyl-3-yl)ethyl]-9H-purin-6-amine], the IC50 on PI3Kδ (p110δ/p85α) is less than 50 nM; in experiment [1] it was less than 100 nM.

For the molecule `COc1ccc(-c2c(C)c(Cl)cc(C(C)Nc3ncnc4[nH]cnc34)c2OC)cc1Cl` (centres unmarked) [Example 97, N-[1-(3′,5-dichloro-2,4′-dimethoxy-6-methylbiphenyl-3-yl)ethyl]-9H-purin-6-amine], the values for the IC50 (at PI3Kδ (p110δ/p85α); in experiment [1]) were 50 to 100 nM and 100 to 500 nM, respectively.

`COc1c(C(C)Nc2ncnc3[nH]cnc23)cc(Cl)c(C)c1-c1ccnc(Cl)c1` (centres unmarked) [Example 98, N-{1-[5-chloro-3-(2-chloropyridin-4-yl)-2-methoxy-4-methylphenyl]ethyl}-9H-purin-6-amine]: the figures for the IC50 (at PI3Kδ (p110δ/p85α); in experiment [1]) were less than 50 nM and less than 100 nM, respectively.

For `COc1c(C(C)Nc2ncnc3[nH]cnc23)cc(Cl)c(C)c1-c1cccc(N(C)C)c1` (centres unmarked) [Example 100, N-{1-[5-chloro-3′-(dimethylamino)-2-methoxy-6-methylbiphenyl-3-yl]ethyl}-9H-purin-6-amine], the IC50 on PI3Kδ (p110δ/p85α) was less than 50 nM; in experiment [1] it was more than 1000 nM.

Take `Cc1c(Cl)cc(C(C)Nc2ncnc3[nH]cnc23)c(-c2cc(F)cc(F)c2)c1-c1cn[nH]c1` (centres unmarked) [Example 106, N-{1-[4-Chloro-3′,5′-difluoro-5-methyl-6-(1H-pyrazol-4-yl)biphenyl-2-yl]ethyl}-9H-purin-6-amine]: the IC50 is less than 50 nM against PI3Kδ (p110δ/p85α) and less than 100 nM in experiment [1].

Turning to `Cc1n[nH]c(C)c1-c1c(C)c(Cl)cc(C(C)Nc2ncnc3[nH]cnc23)c1-c1cc(F)cc(F)c1` (centres unmarked) [Example 107, N-{1-[4-chloro-6-(3,5-dimethyl-1H-pyrazol-4-yl)-3′,5′-difluoro-5-methylbiphenyl-2-yl]ethyl}-9H-purin-6-amine], the IC50 against PI3Kδ (p110δ/p85α) is less than 50 nM; in experiment [1], 100 to 500 nM.

Consider `COc1ncc(-c2c(C)c(Cl)cc(C(C)Nc3ncnc4[nH]cnc34)c2OC)cc1F` (centres unmarked) [Example 109, N-{1-[5-chloro-3-(5-fluoro-6-methoxypyridin-3-yl)-2-methoxy-4-methylphenyl]ethyl]-9H-purin-6-amine], for which the IC50 against PI3Kδ (p110δ/p85α) was less than 50 nM; in experiment [1] it was less than 100 nM.

Turning to `COc1c(C(C)Nc2ncnc3[nH]cnc23)cc(Cl)c(C)c1-c1cc(F)cc(C(N)=O)c1` (centres unmarked) [Example 110, 3′-chloro-5-fluoro-6′-methoxy-2′-methyl-5′-[1-(9H-purin-6-ylamino)ethyl]biphenyl-3-carboxamide], the IC50 was less than 50 nM at PI3Kδ (p110δ/p85α) and 100 to 500 nM in experiment [1].

Take `COc1c(C(C)Nc2ncnc3[nH]cnc23)cc(Cl)c(C)c1-c1cncc(C(=O)N2CCOCC2)c1` (centres unmarked) [Example 111, N-(1-{5-chloro-2-methoxy-4-methyl-3-[5-(morpholin-4-ylcarbonyl)pyridin-3-yl]phenyl}ethyl)-9H-purin-6-amine]: the figures for the IC50 (against PI3Kδ (p110δ/p85α); in experiment [1]) were less than 50 nM and less than 100 nM, respectively.

With `COc1c(C(C)Nc2ncnc3[nH]cnc23)cc(Cl)c(C)c1-c1ccc(NC(C)=O)nc1` (centres unmarked) [Example 112, N-(5-{3-chloro-6-methoxy-2-methyl-5-[1-(9H-purin-6-ylamino)ethyl]phenyl}-pyridin-2-yl)acetamide], the IC50 on PI3Kδ (p110δ/p85α) is less than 50 nM; in experiment [1], less than 100 nM.

With `CC(Nc1ncnc2[nH]cnc12)c1cc(Cl)cc(-c2cn[nH]c2)c1-c1cc(F)cc(F)c1` (centres unmarked) [Example 124, N-{1-[4-Chloro-3′,5′-difluoro-6-(1H-pyrazol-4-yl)biphenyl-2-yl]ethyl}-9H-purin-6-amine], the IC50 on PI3Kδ (p110δ/p85α) is less than 50 nM; in experiment [1], less than 100 nM.

As for `COc1c(C(C)Nc2ncnc3[nH]cnc23)cc(Cl)c(C)c1C1CN(C(C)=O)C1` (centres unmarked) [Example 166, N-{1-[3-(1-Acetylazetidin-3-yl)-5-chloro-2-methoxy-4-methylphenyl]ethyl}-9H-purin-6-amine trifluoroacetate], the figures for the IC50 (against PI3Kδ (p110δ/p85α); in experiment [1]) were less than 50 nM and less than 100 nM, respectively.

Regarding `COc1c(C(C)Nc2ncnc3[nH]cnc23)cc(Cl)c(C)c1C1CN(C(C)C)C1` (centres unmarked) [Example 170, N-{1-[5-Chloro-3-(1-isopropylazetidin-3-yl)-2-methoxy-4-methylphenyl]ethyl}-9H-purin-6-amine bis(trifluoroacetate)], the IC50 on PI3Kδ (p110δ/p85α) is less than 50 nM; in experiment [1], less than 100 nM.

For `COc1c(C(C)Nc2ncnc3[nH]cnc23)cc(Cl)c(C)c1-c1cnn(C2CCNCC2)c1` (centres unmarked) [Example 174, N-{1-[5-chloro-2-methoxy-4-methyl-3-(1-piperidin-4-yl-1H-pyrazol-4-yl)phenyl]ethyl}-9H-purin-6-amine tris(trifluoroacetate)], the IC50 is less than 50 nM on PI3Kδ (p110δ/p85α) and less than 100 nM in experiment [1].

Consider `COc1c(C(C)Nc2ncnc3[nH]cnc23)cc(Cl)c(C)c1C1CCN(C)CC1` (centres unmarked) [Example 176, N-{1-[5-Chloro-2-methoxy-4-methyl-3-(1-methylpiperidin-4-yl)phenyl]ethyl}-9H-purin-6-amine], for which the IC50 at PI3Kδ (p110δ/p85α) is less than 50 nM; in experiment [1], less than 100 nM.

As for `COc1c(C(C)Nc2ncnc3[nH]cnc23)cc(Cl)c(C)c1-c1cccc(C(=O)N(C)C)n1` (centres unmarked) [Example 177, 6-{3-chloro-6-methoxy-2-methyl-5-[1-(9H-purin-6-ylamino)ethyl]phenyl}-N,N-dimethylpyridine-2-carboxamide bis(2,2,2-trifluoroacetate)], the IC50 was less than 50 nM against PI3Kδ (p110δ/p85α) and less than 100 nM in experiment [1].

With `COc1c(C(C)Nc2ncnc3[nH]cnc23)cc(Cl)c(C)c1-c1cc(C(=O)N(C)C)cnn1` (centres unmarked) [Example 178, 6-{3-chloro-6-methoxy-2-methyl-5-[1-(9H-purin-6-ylamino)ethyl]phenyl}-N,N-dimethylpyridazine-4-carboxamide bis(2,2,2-trifluoroacetate)], the IC50 was less than 50 nM at PI3Kδ (p110δ/p85α) and less than 100 nM in experiment [1].

`CCOc1c(C(C)Nc2ncnc3[nH]cnc23)cc(Cl)c(C#N)c1-c1ccc(C(=O)N(C)C)nc1` (centres unmarked) [Example 179, 5-{3-chloro-2-cyano-6-ethoxy-5-[1-(9H-purin-6-ylamino)ethyl]phenyl}-N,N-dimethylpyridine-2-carboxamide bis(2,2,2-trifluoroacetate)]: the IC50 at PI3Kδ (p110δ/p85α) was less than 50 nM; in experiment [1] it was less than 100 nM.

`CCOc1c(C(C)Nc2ncnc3[nH]cnc23)cc(Cl)c(C#N)c1-c1ccc(C(C)O)nc1` (centres unmarked) [Example 180, 6-chloro-3-ethoxy-2-[6-(1-hydroxyethyl)pyridin-3-yl]-4-[1-(9H-purin-6-ylamino)ethyl]benzonitrile bis(2,2,2-trifluoroacetate)]: the IC50 on PI3Kδ (p110δ/p85α) was less than 50 nM; in experiment [1], less than 100 nM.

For the molecule `COc1c(C(C)Nc2ncnc3[nH]cnc23)cc(Cl)c(Cl)c1C1CN(C(C)C)C1` (centres unmarked) [Example 194, N-{1-[4,5-Dichloro-3-(1-isopropylazetidin-3-yl)-2-methoxyphenyl]ethyl}-9H-purin-6-amine bis(trifluoroacetate)], the IC50 against PI3Kδ (p110δ/p85α) is less than 50 nM; in experiment [1], less than 100 nM.

Regarding `COc1c(C(C)Nc2ncnc3[nH]cnc23)cc(Cl)c(Cl)c1C1CN(C(C)=O)C1` (centres unmarked) [Example 195, N-{1-[3-(1-Acetylazetidin-3-yl)-4,5-dichloro-2-methoxyphenyl]ethyl}-9H-purin-6-amine], the concentration for half-maximal inhibition (IC50) on PI3Kδ (p110δ/p85α) is less than 50 nM; in experiment [1], less than 100 nM.

`COc1c(C(C)Nc2ncnc3[nH]cnc23)cc(Cl)c(Cl)c1C1CN(CCO)C1` (centres unmarked) [Example 196, 2-(3-{2,3-Dichloro-6-methoxy-5-[1-(9H-purin-6-ylamino)ethyl]phenyl}azetidin-1-yl)ethanol bis(trifluoroacetate)]: the IC50 on PI3Kδ (p110δ/p85α) was less than 50 nM; in experiment [1], less than 100 nM.

Regarding `COc1c(C(C)Nc2ncnc3[nH]cnc23)cc(Cl)c(Cl)c1C1CN(C2CCOC2)C1` (centres unmarked) [Example 197, N-(1-{4,5-Dichloro-2-methoxy-3-[1-(tetrahydrofuran-3-yl)azetidin-3-yl]phenyl}ethyl)-9H-purin-6-amine bistrifluoroacetate], the values for the IC50 (at PI3Kδ (p110δ/p85α); in experiment [1]) were less than 50 nM and less than 100 nM, respectively.

Take `COc1c(C(C)Nc2ncnc3[nH]cnc23)cc(Cl)c(Cl)c1C1CN(C)C1` (centres unmarked) [Example 199, N-{1-[4,5-Dichloro-2-methoxy-3-(1-methylazetidin-3-yl)phenyl]ethyl}-9H-purin-6-amine]: the results for the concentration for half-maximal inhibition (IC50) (against PI3Kδ (p110δ/p85α); in experiment [1]) were less than 50 nM and less than 100 nM, respectively.
